From ChEMBL document CHEMBL3045803, “Preparation and root growth-inhibitory activity of N-substituted 2-(2-chloroacetamido)-3-(furan-2-yl)propanamides” (2005) come the findings set out here.

Molecules are shown by their SMILES.

The experiment deals with Brassica rapa subsp. oleifera. The experiment is described as follows: Inhibition of Brassica rapa subsp. oleifera root growth assessed as reduction of root length at 5 x 10^-5 M after 7 days by germination assay relative to control. It counts as functional. The settings on record: 168 h.
Take `Cc1cnc(NC(=O)C(Cc2ccco2)NC(=O)CCl)s1` (centres undefined): the inhibition (as a rule, the percentage by which the read-out fell short of the control) at 50 µM turned out to be 20%.
In the case of `O=C(CCl)NC(Cc1ccco1)C(=O)Nc1nc2ccccc2s1` (centres undefined) it was 58%.
In the case of `O=C(CCl)NC(Cc1ccco1)C(=O)Nc1nc2c(Cl)cccc2s1` (centres undefined) it was 42%; in that of `CCOc1ccc2nc(NC(=O)C(Cc3ccco3)NC(=O)CCl)sc2c1` (centres undefined), 34%; in that of `O=C(CCl)NC(Cc1ccco1)C(=O)Nc1ccccc1` (centres undefined), 52%.
The value for `O=C(CCl)NC(Cc1ccco1)C(=O)Nc1cccc(F)c1` (centres undefined) was 33%.
As to `O=C(CCl)NC(Cc1ccco1)C(=O)Nc1ccc(F)cc1` (centres undefined), the inhibition at 50 µM was found to be 37%.
In the case of `O=C(CCl)NC(Cc1ccco1)C(=O)Nc1cccc(Cl)c1` (centres undefined) it was 30%; in that of `O=C(CCl)NC(Cc1ccco1)C(=O)Nc1ccc(Cl)cc1` (centres undefined), 19%; in that of `O=C(CCl)NC(Cc1ccco1)C(=O)Nc1cccc(Br)c1` (centres undefined), 42%.
In the case of `O=C(CCl)NC(Cc1ccco1)C(=O)Nc1ccc(Br)cc1` (centres undefined) it was 29%; in that of `CCc1ccccc1NC(=O)C(Cc1ccco1)NC(=O)CCl` (centres undefined), 20%; in that of `CCc1cccc(NC(=O)C(Cc2ccco2)NC(=O)CCl)c1` (centres undefined), 35%.
In the case of `CCc1ccc(NC(=O)C(Cc2ccco2)NC(=O)CCl)cc1` (centres undefined) it was 41%; in that of `CCc1cccc(CC)c1NC(=O)C(Cc1ccco1)NC(=O)CCl` (centres undefined), 76%; in that of `CCc1cccc(C)c1NC(=O)C(Cc1ccco1)NC(=O)CCl` (centres undefined), 67%.
Consider `Cc1cccc(C)c1NC(=O)C(Cc1ccco1)NC(=O)CCl` (centres undefined), for which the inhibition at 50 µM turned out to be 62%.
In the case of `O=C(CCl)NC(Cc1ccco1)C(=O)Nc1nccs1` (centres undefined) it was 57%.
The value for `O=C(CCl)NC(Cc1ccco1)C(=O)Nc1ncc(Br)s1` (centres undefined) was 69%; that for `O=C(CCl)NC(Cc1ccco1)C(=O)Nc1ncc([N+](=O)[O-])s1` (centres undefined) was 37%.
The value for `Cc1csc(NC(=O)C(Cc2ccco2)NC(=O)CCl)n1` (centres undefined) was 56%; that for `Cc1nc(NC(=O)C(Cc2ccco2)NC(=O)CCl)sc1C` (centres undefined) was 25%.
As to `O=C(CCl)NC(Cc1ccco1)C(=O)Nc1nc(-c2ccc(Cl)cc2)cs1` (centres undefined), the inhibition at 50 µM amounted to 52%.
For the compound `O=C(O)COc1ccc(Cl)cc1Cl` [2,4-DICHLOROPHENOXYACETIC ACID], the inhibition at 50 µM stood at 97%.
